Patent US11572379B2, “Monomaleimide-functionalized platinum compounds for cancer therapy” (Medizinische Universität Wien, priority 2015, dated 2023)
Entries after “also recorded” stand apart in the source; their conditions may differ.

Columns and labels:
[1] = system: L1210 murine leukemia cells; assay: L1210 leukemia in vivo assay (survival); conditions: L1210 i.p., male DBA/2J×Balb/c SCID F1 mice
Experimental: L1210 murine leukemia cells (1×10^5) were injected intraperitoneally in a volume of 0.2 mL into female DBA/2J (cisplatin-releasing drugs) or male DBA/2J×Balb/c SCID F1 mice (oxaliplatin-releasing drugs). Compounds (see FIG. 4; dissolved as described above) were administered intraperitoneally at drug concentrations equimolar to 3 mg/kg cisplatin and 9 mg/kg oxaliplatin, respectively, on day 1, 5, and 9. Toxicity was monitored by daily observation of animals and registration of their body weight. Therapeutic efficacy of the drug candidate was monitored by recording the lengths of survival of experimental mice compared to untreated control animals.

CT-26 colon cancer cells = assay: CT-26 colon cancer in vivo assay for anticancer activity; set-up: species or system Balb/c mice
Experimental: CT-26 colon cancer cells (5×10^5 in serum-free medium) were injected subcutaneously into the right flank of Balb/c mice. Animals were treated with the indicated oxaliplatin-releasing drugs at concentrations equimolar to 9 mg/kg oxaliplatin (i.v.; KP2156, KP2299 (compound 12), and KP2541 (compound 22) were dissolved in 0.9% NaCl solution, KP2260 (compound 11) was dissolved in 10% propylene glycol/0.9% NaCl and oxaliplatin was dissolved in 5% glucose solution according to the clinical protocol) twice a week (Mondays and Thursdays). Also in case of KP2552 (mixture of compounds 23 and 24, with the 4-methyl-1,2-cyclohexanediamine moiety) the solvent and application scheme of oxaliplatin was used. In case of cisplatin-releasing prodrugs KP2372 (compound 8) and KP2540 (compound 30), a dose equimolar to 3 mg/kg cisplatin was applied twice a week. For the carboplatin derivative KP2551 (compound 20) a dose equimolar to 12 mg/kg carboplatin was applied. The complexes were dissolved in 0.9% NaCl, while for the platinum(II) drugs 5% glucose solution was used according to the clinical protocol. Animals were controlled for distress development every day and tumor size was assessed regularly by caliper measurement. Tumor volume was calculated using the formula: (length×width^2).

[2] = RP-HPLC stability studies: hydrolytic stability in buffered aqueous solution at different pH values; format: physicochemical; conditions: 0.5 mM, 20° C.; for stability (decrease of the compound peak area): over 24 h; for hydrolysis: 24 hours
Experimental: The stability of the compounds of the invention in aqueous solutions at different pH values was evaluated by incubation of compound 12 (KP2299) in different buffers and subsequent monitoring of the decrease of the compound peak area with the UV/VIS detector of a RP-HPLC system at 250 nm. Therefore, compound 12 was dissolved at a concentration of 0.5 mM in either 100 mM phosphate buffer pH=7.4, 100 mM sodium acetate buffer pH=6.3, 100 mM sodium acetate buffer pH=5.3 or 100 mM sodium acetate buffer pH=4.3 and incubated at 20° C. for 24 hours. All the measurements were carried out on an Ultimate 3000 RS system (Thermo Scientific, Waltham, Mass., USA) controlled by Chromeleon 7.2 SR4 software using an Acquity BEH C18 reversed phase column (50×3.0 mm, 1.7 μm particle size) from Waters (Milford, USA). Following conditions were used for the runs: flow rate 0.6 mL/min, sampler temperature: 20° C., column oven temperature 25° C., injection volume 10 μL, gradient 5-95% MeOH (and H2O (+0.1% HCOOH)) in 10 min. The compound was first measured directly after the preparation of the compound (after 2-3 min) and thereafter every 60 min. The decrease of the compound was calculated by the compound peak areas relatively to the peak area directly after the preparation of the compound. […] At pH=6.3 the hydrolysis is below 0.5%/h, whereas at pH=7.4 the hydrolysis is quite fast with ˜2.6%/h (see FIG. 5). Corresponding results can be obtained when the further compounds of the invention are tested.

B16 melanoma cells = assay: B16 melanoma in vivo assay for anticancer activity; conditions: male C57/B6JRj mice, i.v. twice a week, equimolar to 9 mg/kg oxaliplatin
Experimental: B16 melanoma cells (1×10^5 in serum-free medium) were injected subcutaneously into the right flank of male C57/B6JRj mice. Animals were treated with KP2299 at concentrations equimolar to 9 mg/kg oxaliplatin (i.v.; dissolved in 0.9% NaCl solution) twice a week. Oxaliplatin was dissolved in 5% glucose solution according to the clinical protocol. Animals were controlled for distress development every day and tumor size was assessed regularly by caliper measurement. Tumor volume was calculated using the formula: (length×width^2).

Aqueous solubility = conditions: compared to KP2260
[3] = Balb/c mice, i.v. twice a week, equimolar to 9 mg/kg oxaliplatin
[4] = male Balb/c mice, dose equimolar to 12 mg/kg carboplatin
[5] = Balb/c mice, twice a week, dose equimolar to 3 mg/kg cisplatin

Compound: O=C1[O][Pt]2([NH][C@@H]3CCCC[C@H]3[NH]2)[O]C1=O [oxaliplatin, reference compound]
- treated animals with life prolongation ([1]; i.p. day 1, 5, 9, 9 mg/kg oxaliplatin): ~50%

Compound: (OC-6-34)-[(1R,2R)-Cyclohexane-1,2-diamine]methoxidooxalato[2-(2,5-dioxo-2,5-dihydro-1H-pyrrol-1-yl)ethylcarbamato]platinum(IV) [KP2260]
- anticancer activity against CT-26 tumors (tumor growth) (CT-26 colon cancer cells; [3]): far less or at least later active

Compound: [NH2][Pt]1([NH2])[O]C(=O)C2(CCC2)C(=O)[O]1 [carboplatin, (SP-4-2)-Diamminecyclobutane-1,1-dicarboxylatoplatinum(II), reference compound]
- anticancer activity against CT-26 tumors (tumor growth) (CT-26 colon cancer cells; [4]): no impact

Compound: (OC-6-44)-Acetato[(1R,2R)-cyclohexane-1,2-diamine]oxalato[4-(2,5-dioxo-2,5-dihydro-1H-pyrrol-1-yl)butanoato]platinum(IV) [KP2541]
- anticancer activity against CT-26 tumors (tumor growth) (CT-26 colon cancer cells; [3]): far less or at least later active

Compound: (OC-6-34)-Acetato[(1R,2R)-cyclohexane-1,2-diamine]oxalato[2-(2,5-dioxo-2,5-dihydro-1H-pyrrol-1-yl)ethylcarbamato]platinum(IV) [KP2299]
- anti-leukemic activity (survival) ([1]; i.p. day 1, 5, 9, equimolar to 9 mg/kg oxaliplatin): distinct anti-leukemic activity
- stability (decrease of the compound peak area) ([2]; pH=4.3, 100 mM sodium acetate buffer): stable
- stability (decrease of the compound peak area) ([2]; pH=5.3, 100 mM sodium acetate buffer): stable
- hydrolysis ([2]; pH=6.3, 100 mM sodium acetate buffer): below 0.5 %/h
- hydrolysis ([2]; pH=7.4, 100 mM phosphate buffer): ~2.6 %/h
- anticancer activity against B16 tumors (B16 melanoma cells): exceptionally increased anticancer activity
- anticancer activity against CT-26 tumors (tumor growth) (CT-26 colon cancer cells; [3]): distinctly more active than all other tested compounds; also recorded: distinctly higher anticancer activity; also recorded: exceptionally increased anticancer activity
- complete remission (CT-26 colon cancer cells; CT-26, female mice, equimolar to 9 mg/kg oxaliplatin i.v. twice a week): 3 out of 4
- aqueous solubility (Aqueous solubility): highly increased

Compound: CC(=O)[O][Pt]1([NH2])([NH2])([O]C(=O)NCCN2C(=O)C=CC2=O)[O]C(=O)C2(CCC2)C(=O)[O]1 [KP2551, (OC-6-34)-Acetatodiamminecyclobutane-1,1-dicarboxylato[2-(2,5-dioxo-2,5-dihydro-1H-pyrrol-1-yl)ethylcarbamato]platinum(IV)]
- anticancer activity against CT-26 tumors (tumor growth) (CT-26 colon cancer cells; [4]): distinctly more active than all other tested compounds; also recorded: very strong anticancer activity

Compound: CC(=O)[O][Pt]([Cl])([Cl])[O]C(=O)NCCCCCN1C(=O)C=CC1=O.N.N [KP2540, (OC-6-44)-Acetatodiamminedichlorido[5-(2,5-dioxo-2,5-dihydro-1H-pyrrol-1-yl)pentylcarbamato]platinum(IV)]
- anticancer activity against CT-26 tumors (tumor growth) (CT-26 colon cancer cells; [5]): only marginally active; also recorded: widely inactive

Compound: CC(=O)[O][Pt]([Cl])([Cl])[O]C(=O)NCCN1C(=O)C=CC1=O.N.N [KP2372, (OC-6-44)-Acetatodiamminedichlorido[2-(2,5-dioxo-2,5-dihydro-1H-pyrrol-1-yl)ethylcarbamato]platinum(IV)]
- anticancer activity against CT-26 tumors (tumor growth) (CT-26 colon cancer cells; [5]): only marginally active; also recorded: widely inactive
